The test system of one data set is stomach cancer. The conditions noted are these: treating stomach cancer in Japan; Antibiotics Chemother., Vol. 24 (1978); cited from earlier work.
Data set [1] relates to human melanoma cell line, LOX. Briefly: LOX melanoma survival test, nude mice protocol. It counts as in vivo, athymic Swiss nu/nu mice. The conditions noted are these: for T/C: survival of treated vs untreated control group, 5 million LOX cells IP, IP treatment from day 1, lower dosage schedule for Dye 5. From the text: (§1) Figs. 1-8 are a plot of survival rates of a cancer in an animal model, either treated as per the invention or untreated. In these plots, "% survival" means the % of the total group (treated "T" or control "C") still surviving on the day in question. The 50% data point is selected for the T/C calculation, as being the point that is statistically meaningful.
(§2) In the examples that follow, "nude mice protocol" refers to conventional xenografted human carcinoma or melanoma cells implanted into athymic mice. […] This has been reported in, e.g., the Journal of the National Cancer Institute, Vol. 74, No. 4, p. 899-903, especially p. […] (April 1985).
A human melanoma cell line, LOX, was utilized that grows rapidly when innoculated into the peritoneal cavity of athymic mice. Tumors which had been passaged subcutaneously in athymic mice were excised under sterile conditions and converted to a single cell suspension using a metal grid with a 4 mm mesh. Red blood cells were then lysed by incubation with 0.17 molar ammonium chloride at 4°C for 20 minutes. Cells were then scored for viability with trypan blue and 5 million viable cells made up in 0.1 ml of Dulbecco modified Eagles' medium (DME) were injected intraperitoneally into a group of athymic Swiss nu/nu mice (day 0). The mice were then randomly allocated into treatment and control groups. Treatment, by intraperitoneal injection, commenced the following day (day 1). Mice received dye No. 1 or Dye No. 2 at 1 mg/kg daily for five days followed by 1.5 mg/kg on day 8, 10, 12, 14 and 16, and twice a week at 2 mg/kg thereafter. There were 10 mice in each of the treatment groups and control group. The control group received 5% dextrose solution equal in volume to that of the Dye No. 1 treated group.
In the same experiment, the comparative example 1 was administered to 10 mice using the following schedule: 0.2 mg/kg daily for five days followed by 0.5 mg/kg on day 8, 10, 12, 14 and 16, and twice a week at 1 mg/kg thereafter.
T/C is the ratio, expressed as a percentage, of mean survival age of the treated group, to the mean survival age of the untreated control group.

Data set [2] deals with CX-1 (human colon carcinoma). Briefly: clonogenic in vitro study, inhibition of cell colony formation. The conditions noted are these: concentration of dye that inhibits 50% of cell colony formation, regular lighting conditions of laboratories; for IC50: Homo sapiens. Type of data set: cell-based. The source says: As noted above, one of the advantages of the invention is that the cyanines described herein selectively attack the cancer cells as opposed to normal cells. Although knowledge of the mechanism is not essential to the practice of the invention, it is believed this occurs through the preferential inhibition of oxygen consumption in the mitochondria of the cancer cells. Such selectivity is further shown in clonogenic in vitro studies carried out in conventional fashion. That is, cell cultures of CX-1 (human colon carcinoma) and CV-1 (normal monkey epithelial cells) are prepared and treated at various concentrations, in the conventional manner, and the concentration of the dye that inhibits 50% of the cell colony formation is denoted as IC₅₀. This IC₅₀ value is compared for both the CX-1 and CV-1 lines; that is, the value for CV-1 is divided by the value for CX-1. If the value is 10 µg/ml for CV-1, and 1 µg/ml for CX-1, then the dye is 10 times as effective in killing off the colon carcinoma cells, compared to the monkey epithelial cells. This is expressed as a selectivity "S" of 10.
The selectivity values, and the CX-1 values for four of the cyanines of this invention obtained and tested under regular lighting conditions of laboratories, are listed below in Table I, along with a fifth cyanine used for comparative purposes.

For another data set, the system named is MB49 tumor cells. Briefly: mouse bladder carcinoma survival test, dyes given intraperitoneally. Type of data set: in vivo, normal male BDF1 mice. How it is done:
as §1
MB49 tumor cells, that is, mouse carcinoma cells induced by the carcinogen 7,12-dimethylbenz[a]anthracene, were injected intraperitoneally into normal male BDF1 mice (2 X 10⁶/mouse on day 0). Cyanine Dye No. 1 or No. 2, was administered intraperitioneally in the following manner: 0.2 mg/kg on day 1, 0.4 mg/kg on day 2, 0.8 mg/kg on day 3, 1.2 mg/kg on day 4, 1.5 mg/kg on days 8, 12, 16, 20, 24. (No further injection was used thereafter). […] (No further injection was used thereafter.) The control group of 10 mice was treated with equal volume of 5% dextrose as those treated with dye no. 1. The survival rate was calculated as in the previous examples.

For data set [3], the system named is CX-1 (human colon carcinoma) and CV-1 (normal monkey epithelial cells). Description: clonogenic in vitro selectivity, IC50 for CV-1 divided by IC50 for CX-1. The conditions noted are these: selectivity: IC50 value for CV-1 divided by value for CX-1. It counts as cell-based. How it is done:
That is, cell cultures of CX-1 (human colon carcinoma) and CV-1 (normal monkey epithelial cells) are prepared and treated at various concentrations, in the conventional manner, and the concentration of the dye that inhibits 50% of the cell colony formation is denoted as IC₅₀. This IC₅₀ value is compared for both the CX-1 and CV-1 lines; that is, the value for CV-1 is divided by the value for CX-1. […] This is expressed as a selectivity "S" of 10.
Their generic structure is as follows: [drawing 7]

The subject of data set [4] is OVCAR -3, a human ovarian carcinoma cell line. Briefly: ovarian carcinoma survival test, nude mice protocol. Type of data set: in vivo, athymic Swiss nu/nu mice. The conditions noted are these: survival of treated vs control; ten million OVCAR-3 cells IP; IP treatment; lower dosage schedule for Dye 5.
Source text: as §1, §2
Dye Nos. 1 and 2 were repeated, except the cancer that was treated was OVCAR -3, a human ovarian carcinoma cell line of which ten million cells were injected IP into athymic Swiss nu/nu mice. For Ex. 5, 10 mice received dye 1 by IP injection commenced the day after the cancer injection, and repeated daily at 1.5 mg/kg for four days followed by 2 mg/kg on day 7, 10, 13, 16, 19 and 21, and twice a week at 2 mg/kg thereafter. Ten mice having such injected cancer were selected as a control group and received an equal volume of 5% dextrose as that of the treated group.
For Ex. 6, 10 mice received dye no. […]

Structures are written as SMILES.

Turning to `COc1cccc2c1C(=O)c1c(O)c3c(c(O)c1C2=O)C[C@@](O)(C(=O)CO)C[C@@H]3O[C@H]1C[C@H](N)[C@H](O)[C@H](C)O1` [Adriamycin], the effective response rate in the data set on stomach cancer is listed as 14.5%.

Usually T/C stands for the result in the treated group divided by that in the control group, in per cent. On to `CN1C(=CC=Cc2sc3ccccc3[n+]2C)Sc2ccccc21` [Dye No. 1, 3-methyl-2-[3-(3-methyl-4-benzo-thiazolin-2-ylidene)-1-propen-1-yl]-benzo-thiazolium chloride], for which the T/C in data set [1] is on record as 205%.

`CCN1C(=CC=Cc2sc3ccccc3[n+]2CC)Sc2ccccc21` [Dye No. 2, 3-ethyl-2-[3-(3-ethyl-4-benzothia-zolin-2-ylidene)-1-propen-1-yl]-benzothiazolium iodide] had a T/C in data set [1] of 176%.

`CCCN1C(=CC=Cc2sc3ccccc3[n+]2CCC)Sc2ccccc21` [Dye No. 5, 3-propyl-2-[3-(3-propyl-4-benzothia-zolin-2-ylidene)-1-propen-1-yl]benzothiazolium iodide]: in data set [2] (listed as 3), the “CX-1 Value” is “.004 µg/mL”. In data set [1] (LOX-bearing athymic mice, IP, dosage schedule of Dye No. 1 (1 mg/kg daily for five days, then 1.5 and 2 mg/kg)), the “toxicity at the dosage of Dye No. 1” value is “killed the mice before the 50% survival point of the control could be reached”. The molecule also came in with a T/C in data set [1] (listed as 3) of 168%. Besides, the “outcome of treatment (verdict in words)” value in the data set on MB49 tumor cells (MB49 mouse bladder carcinoma, IP) was “failure”.

What is called IC50 is the concentration that gives 50% inhibition. For the molecule `CN1C(=CC=Cc2sc3ccccc3[n+]2C)Sc2ccccc21` [compound 1], 5 ng/mL corresponded to half-maximal inhibition in data set [2] (IC50).

In data set [2], `CCN1C(=CC=Cc2sc3ccccc3[n+]2CC)Sc2ccccc21` [compound 2] returned a half-maximal inhibitory concentration (IC50) of 5 ng/mL.

`CCN1C(=CC=c2sc(=Cc3sc4c([n+]3CC)CCCC4)n(CC)c2=O)Oc2ccccc21` [compound 4]: the IC50 in data set [2] was found to be 50 ng/mL. In data set [3], the S was 100. Further, in data set [1], the T/C is 166%.

`CCCN1C(=CC=Cc2sc3ccccc3[n+]2CCC)Sc2ccccc21` [compound 5]: the “CX-1 Value” in data set [2] was “.009 µg/mL”. Also, the S in data set [3] was 22. The T/C in data set [1] came to 128%; in data set [4], 138%; in the data set on MB49 tumor cells (survival of treated vs control, 2 X 10^6 MB49 cells/mouse IP, IP treatment, lower dosage schedule for dye No. 5), 113%.

For the molecule `CCN1C(=CC(=Cc2sc3ccccc3[n+]2C)SC)Sc2ccccc21` [compound 6], the S in data set [3] is on record as 37.5.

Take `CCC(=Cc1oc2ccccc2[n+]1CC)C=C1Sc2ccccc2N1CC` [compound 7]: the S in data set [3] amounted to 33.3.
